# Patent US9758538B2, “Pyrimidine derivatives” (PFIZER INC., priority 2015, dated 2017)
# Target: truncated PI3Kα (p110α/iSH2 p85α), PI3KA_Act (Homo sapiens (Human), UniProt P42336)
# Assay: PI3Kα biochemical kinase assay, fluorescence polarization format (PI3KA_Act)
# Details: 0.5 nM p110α/iSH2 p85, 1 mM ATP, 30 μM PIP2, 15-min preincubation; Morrison equation fit; read-out: PI3KA_Act Ki
# Summary of the method: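 Enzyme: His-tagged p110α/p85α niSH2 complex from Sf21 baculovirus expression, IMAC-purified, tag cleaved, then SEC. Reactions ran 30 min at room temperature, stopped with 10 mM EDTA pH 8 (final), and were read by fluorescence polarization.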
# Sequence of truncated PI3Kα (p110α/iSH2 p85α), PI3KA_Act (P42336 whole entry, the tested form may be a part): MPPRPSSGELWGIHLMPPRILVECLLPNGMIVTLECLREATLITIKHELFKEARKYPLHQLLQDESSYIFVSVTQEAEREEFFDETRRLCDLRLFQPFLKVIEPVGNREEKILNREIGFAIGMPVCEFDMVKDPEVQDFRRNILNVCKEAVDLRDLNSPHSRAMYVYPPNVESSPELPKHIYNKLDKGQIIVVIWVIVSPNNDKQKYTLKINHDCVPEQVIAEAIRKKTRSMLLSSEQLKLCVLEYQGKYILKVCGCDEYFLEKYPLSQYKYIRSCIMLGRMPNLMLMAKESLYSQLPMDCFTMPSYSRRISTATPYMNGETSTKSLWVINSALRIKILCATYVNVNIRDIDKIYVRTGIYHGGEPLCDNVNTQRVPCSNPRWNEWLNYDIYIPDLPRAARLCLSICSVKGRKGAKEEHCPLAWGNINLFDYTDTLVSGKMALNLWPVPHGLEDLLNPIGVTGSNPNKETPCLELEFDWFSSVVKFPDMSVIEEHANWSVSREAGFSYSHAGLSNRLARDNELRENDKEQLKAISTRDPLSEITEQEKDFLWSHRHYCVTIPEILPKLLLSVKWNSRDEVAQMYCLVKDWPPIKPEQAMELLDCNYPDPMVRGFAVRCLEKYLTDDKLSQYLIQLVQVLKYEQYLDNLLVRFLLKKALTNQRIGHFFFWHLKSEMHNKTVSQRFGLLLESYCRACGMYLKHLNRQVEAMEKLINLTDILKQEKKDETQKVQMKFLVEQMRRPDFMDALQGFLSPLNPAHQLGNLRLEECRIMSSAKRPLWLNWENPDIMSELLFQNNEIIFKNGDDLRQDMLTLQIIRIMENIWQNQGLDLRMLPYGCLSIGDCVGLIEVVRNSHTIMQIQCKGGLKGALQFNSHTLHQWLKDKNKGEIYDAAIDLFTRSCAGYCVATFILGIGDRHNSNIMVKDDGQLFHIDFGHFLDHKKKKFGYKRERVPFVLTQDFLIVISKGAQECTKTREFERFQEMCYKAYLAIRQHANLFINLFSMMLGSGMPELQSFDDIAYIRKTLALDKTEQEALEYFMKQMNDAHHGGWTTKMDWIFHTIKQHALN
row,Structure (SMILES),Ki
1,"Nc1ncc(-c2cc(N[C@@]3(CO)CCN(C(=O)NCC(F)F)C3)nc(N3CCOCC3)n2)cn1 [Example 131, (3S)-3-{[2′-amino-2-(morpholin-4-yl)-4,5′-bipyrimidin-6-yl]amino}-N-(2,2-difluoroethyl)-3-(hydroxymethyl)pyrrolidine-1-carboxamide]",0.205 nM
2,"Nc1ncc(-c2nc(N3CCOCC3)nc(N[C@@]3(CO)CCN(C(=O)NCC(F)F)C3)c2F)cn1 [Example 132, (3S)-3-{[2′-amino-5-fluoro-2-(morpholin-4-yl)-4,5′-bipyrimidin-6-yl]amino}-N-(2,2-difluoroethyl)-3-(hydroxymethyl)pyrrolidine-1-carboxamide]",0.097 nM
3,"Nc1ncc(-c2cc(N[C@@]3(CO)CCN(C(=O)NCC(F)(F)F)C3)nc(N3CCOCC3)n2)cn1 [Example 133, (3S)-3-{[2′-amino-2-(morpholin-4-yl)-4,5′-bipyrimidin-6-yl]amino}-3-(hydroxymethyl)-N-(2,2,2-trifluoroethyl)pyrrolidine-1-carboxamide]",0.795 nM
4,"Cc1ncc(-c2cc(N[C@@]3(CO)CCN(C(=O)C4(F)CC4)C3)nc(N3CCOCC3)n2)cn1 [Example 136, (1-fluorocyclopropyl)[(3S)-3-(hydroxymethyl)-3-{[2′-methyl-2-(morpholin-4-yl)-4,5′-bipyrimidin-6-yl]amino}pyrrolidin-1-yl]methanone]",0.739 nM
5,"Nc1ncc(-c2nc(N3CCOCC3)nc(N[C@@]3(CO)CCNC3)c2F)cn1 [Example 137, [(3S)-3-{[2′-amino-5-fluoro-2-(morpholin-4-yl)-4,5′-bipyrimidin-6-yl]amino}pyrrolidin-3-yl]methanol]",48.7 nM
6,"Cc1ncc(-c2cc(N[C@@]3(CO)CCN(C(=O)OCC(F)F)C3)nc(N3CCOCC3)n2)cn1 [Example 138, 2,2-difluoroethyl (3S)-3-(hydroxymethyl)-3-{[2′-methyl-2-(morpholin-4-yl)-4,5′-bipyrimidin-6-yl]amino}pyrrolidine-1-carboxylate]",0.557 nM
7,"Nc1ncc(-c2nc(N3CCOCC3)nc(N[C@@]3(CO)CCN(C(=O)OCCF)C3)c2F)cn1 [Example 139, 2-fluoroethyl (3S)-3-{[2′-amino-5-fluoro-2-(morpholin-4-yl)-4,5′-bipyrimidin-6-yl]amino}-3-(hydroxymethyl)pyrrolidine-1-carboxylate]",< 0.018 nM
8,"Nc1ncc(-c2cc(N[C@@]3(CO)CCCN(C(=O)OCC(F)F)C3)nc(N3CCOCC3)n2)cn1 [Example 141, 2,2-difluoroethyl (3S)-3-{[2′-amino-2-(morpholin-4-yl)-4,5′-bipyrimidin-6-yl]amino}-3-(hydroxymethyl)piperidine-1-carboxylate]",0.043 nM
9,"Nc1ncc(-c2nc(N3CCOCC3)nc(N[C@]3(CO)CCCNC3)c2F)cn1 [Example 144, [(3R)-3-{[2′-amino-5-fluoro-2-(morpholin-4-yl)-4,5′-bipyrimidin-6-yl]amino}piperidin-3-yl]methanol]",13.9 nM
10,"Nc1ncc(-c2nc(N3CCOCC3)nc(N[C@@]3(CO)CCCNC3)c2F)cn1 [Example 145, [(3S)-3-{[2′-amino-5-fluoro-2-(morpholin-4-yl)-4,5′-bipyrimidin-6-yl]amino}piperidin-3-yl]methanol]",2.53 nM
11,"CCC(=O)N1CCC[C@](CO)(Nc2nc(N3CCOCC3)nc(-c3cnc(N)nc3)c2F)C1 [Example 146, 1-[(3S)-3-{[2′-amino-5-fluoro-2-(morpholin-4-yl)-4,5′-bipyrimidin-6-yl]amino}-3-(hydroxymethyl)piperidin-1-yl]propan-1-one]",0.237 nM
12,"CCC(=O)N1CCC[C@@](CO)(Nc2nc(N3CCOCC3)nc(-c3cnc(N)nc3)c2F)C1 [Example 147, 1-[(3R)-3-{[2′-amino-5-fluoro-2-(morpholin-4-yl)-4,5′-bipyrimidin-6-yl]amino}-3-(hydroxymethyl)piperidin-1-yl]propan-1-one]",1.9 nM
13,"Nc1ncc(-c2nc(N3CCOCC3)nc(N[C@]3(CO)CCCN(C(=O)OCC(F)F)C3)c2F)cn1 [Example 148, 2,2-difluoroethyl (3R)-3-{[2′-amino-5-fluoro-2-(morpholin-4-yl)-4,5′-bipyrimidin-6-yl]amino}-3-(hydroxymethyl)piperidine-1-carboxylate]",2.96 nM
14,"Nc1ncc(-c2nc(N3CCOCC3)nc(N[C@@]3(CO)CCCN(C(=O)OCC(F)F)C3)c2F)cn1 [Example 149, 2,2-difluoroethyl (3S)-3-{[2′-amino-5-fluoro-2-(morpholin-4-yl)-4,5′-bipyrimidin-6-yl]amino}-3-(hydroxymethyl)piperidine-1-carboxylate]",< 0.018 nM
15,"COCC(=O)N1CCC[C@](CO)(Nc2nc(N3CCOCC3)nc(-c3cnc(N)nc3)c2F)C1 [Example 150, 1-[(3S)-3-{[2′-amino-5-fluoro-2-(morpholin-4-yl)-4,5′-bipyrimidin-6-yl]amino}-3-(hydroxymethyl)piperidin-1-yl]-2-methoxyethanone]",0.8 nM
16,"COCC(=O)N1CCC[C@@](CO)(Nc2nc(N3CCOCC3)nc(-c3cnc(N)nc3)c2F)C1 [Example 151, 1-[(3R)-3-{[2′-amino-5-fluoro-2-(morpholin-4-yl)-4,5′-bipyrimidin-6-yl]amino}-3-(hydroxymethyl)piperidin-1-yl]-2-methoxyethanone]",1.82 nM
17,"CC(=O)N1CCC[C@@](CO)(Nc2nc(N3CCOCC3)nc(-c3cnc(N)nc3)c2F)C1 [Example 152, 1-[(3R)-3-{[2′-amino-5-fluoro-2-(morpholin-4-yl)-4,5′-bipyrimidin-6-yl]amino}-3-(hydroxymethyl)piperidin-1-yl]ethanone]",1.65 nM
18,"CC(=O)N1CCC[C@](CO)(Nc2nc(N3CCOCC3)nc(-c3cnc(N)nc3)c2F)C1 [Example 153, 1-[(3S)-3-{[2′-amino-5-fluoro-2-(morpholin-4-yl)-4,5′-bipyrimidin-6-yl]amino}-3-(hydroxymethyl)piperidin-1-yl]ethanone]",0.849 nM
19,"COC(=O)N1CCC[C@](CO)(Nc2nc(N3CCOCC3)nc(-c3cnc(N)nc3)c2F)C1 [Example 154, methyl (3S)-3-{[2′-amino-5-fluoro-2-(morpholin-4-yl)-4,5′-bipyrimidin-6-yl]amino}-3-(hydroxymethyl)piperidine-1-carboxylate]",< 0.018 nM
20,"COC(=O)N1CCC[C@@](CO)(Nc2nc(N3CCOCC3)nc(-c3cnc(N)nc3)c2F)C1 [Example 155, methyl (3R)-3-{[2′-amino-5-fluoro-2-(morpholin-4-yl)-4,5′-bipyrimidin-6-yl]amino}-3-(hydroxymethyl)piperidine-1-carboxylate]",3.07 nM
21,"Nc1ncc(-c2nc(N3CCOCC3)nc(N[C@@]3(CO)CCCN(C(=O)C4CC4)C3)c2F)cn1 [Example 156, [(3S)-3-{[2′-amino-5-fluoro-2-(morpholin-4-yl)-4,5′-bipyrimidin-6-yl]amino}-3-(hydroxymethyl)piperidin-1-yl](cyclopropyl)methanone]",0.454 nM
22,"Nc1ncc(-c2nc(N3CCOCC3)nc(N[C@]3(CO)CCCN(C(=O)C4CC4)C3)c2F)cn1 [Example 157, [(3R)-3-{[2′-amino-5-fluoro-2-(morpholin-4-yl)-4,5′-bipyrimidin-6-yl]amino}-3-(hydroxymethyl)piperidin-1-yl](cyclopropyl)methanone]",1.87 nM
23,"Nc1ncc(-c2nc(N3CCOCC3)nc(N[C@@]3(CO)CCCN(C(=O)C4(F)CC4)C3)c2F)cn1 [Example 159, [(3S)-3-{[2′-amino-5-fluoro-2-(morpholin-4-yl)-4,5′-bipyrimidin-6-yl]amino}-3-(hydroxymethyl)piperidin-1-yl](1-fluorocyclopropyl)methanone]",0.102 nM

# Same assay, conditions: PI3KA_Act Ki (nM), 0.5 nM p110α/iSH2 p85, 1 mM ATP, 30 μM PIP2, 15-min preincubation; Morrison equation fit
row,Structure (SMILES),Ki
1,"Nc1ncc(-c2nc(N3CCOCC3)nc(N[C@@]3(CO)CCN(C(=O)OCC(F)(F)F)C3)c2F)cn1 [Example 140, 2,2,2-trifluoroethyl (3S)-3-{[2′-amino-5-fluoro-2-(morpholin-4-yl)-4,5′-bipyrimidin-6-yl]amino}-3-(hydroxymethyl)pyrrolidine-1-carboxylate]",< 0.018 nM
